# Results as given in patent US5733880A, “Anthracene derivatives for use as anticancer agents” (Napier University Ventures Limited, priority 1993, dated 1998).
# Key:
# K562 = test: In vitro chemosensitivity, microtetrazolium (MTT) assay, K562; type: cell-based; conditions: K562 human chronic myelogenous leukaemia, concentration reducing growth rate by 50% of untreated control
# Procedure: (§1) The cytotoxic properties of selected examples were evaluated against a panel of established human tumour cell lines.
# (§2) K562--a human chronic myelogenous leukaemia (Lozzio and Lozzio, 1975). HRT--18--a human primary adenocarcinoma from the human rectum (Tompkins et al, 1974).
# (§3) Chemosensitivity in vitro was assessed using the microtetrazolium assay (MTT assay) (Twentyman & Luscombe, 1987).
# (§4) Examples were soluble in 5% ethanol/saline. To each well, 20 μl of drug solution was added to give a final drug concentration of 0.1-100 μg/ml at four log increments. Solvent controls were used throughout, and the first row of each plate contained media plus drug in the absence of any cells. Each point is the result of three separate experiments and cytotoxic effects are expressed in terms of percent survival, taking the optical density of the control plates to represent 100% survival.
# (§5) IC50 values are the average concentrations of drug required to reduce the growth rate by 50% of the untreated control system.
# HT-29 = test: In vitro chemosensitivity, microtetrazolium (MTT) assay, HT-29; type: cell-based; conditions: HT-29 human colon adenocarcinoma, concentration reducing growth rate by 50% of untreated control
# Procedure: as §1
# (§6) HT-29 primary adenocarcinomas of the human colon.
# as §3, §4, §5
# HCLO = test: In vitro chemosensitivity, microtetrazolium (MTT) assay, HCLO; type: cell-based, human; conditions: concentration reducing growth rate by 50% of untreated control
# Procedure: as §1, §6, §3, §4, §5
# DLD-1 = test: In vitro chemosensitivity, microtetrazolium (MTT) assay, DLD-1; type: cell-based; conditions: DLD-1 human colon adenocarcinoma, concentration reducing growth rate by 50% of untreated control
# Procedure: as §1, §6, §3, §4, §5
# HRT-18 = test: In vitro chemosensitivity, microtetrazolium (MTT) assay, HRT-18; type: cell-based; conditions: HRT-18 human rectum adenocarcinoma, concentration reducing growth rate by 50% of untreated control
# Procedure: as §1, §2, §3, §4, §5
# man = conditions: in man; cited from earlier work
# rodents = conditions: in rodents; cited from earlier work
Structure (SMILES),IC50 (K562) [µM],IC50 (HT-29) [µM],IC50 (DLD-1) [µM],IC50 (HCLO) [µM],IC50 (HRT-18) [µM],IC50 (HCLO; Homo sapiens) [µM],maximum dose (man) [mg/kg],maximum dose (rodents) [mg/kg]
"CC(C)(C)OC(=O)N[C@H](Cc1ccccc1)C(=O)NCCCNc1cccc2c1C(=O)c1ccccc1C2=O [Example 18, 1-[(3-N-tertiarybutoxycarbonyl-D-phenylalanylamino-propyl)amino]-anthracene-9,10-dione]",19.8,2.5,13.2,17.4,7.7,–,–,–
COc1cccc2c1C(=O)c1c(O)c3c(c(O)c1C2=O)C[C@@](O)(C(=O)CO)C[C@@H]3O[C@H]1C[C@H](N)[C@H](O)[C@H](C)O1 [doxorubicin],–,–,–,–,–,–,1 to 2,5

# Second part, led by results:
IC50 (K562) [µM],IC50 (HT-29) [µM],IC50 (DLD-1) [µM],Structure (SMILES),IC50 (HCLO) [µM],IC50 (HRT-18) [µM],IC50 (HCLO; Homo sapiens) [µM],maximum dose (man) [mg/kg],maximum dose (rodents) [mg/kg]
17.2,7.8,4.1,CSCC[C@H](N)C(=O)NCCCNc1cccc2c1C(=O)c1ccccc1C2=O [Example 12],11.8,10.4,–,–,–
14.2,0.6,2.1,"N[C@@H](Cc1ccc(O)cc1)C(=O)NCCCNc1cccc2c1C(=O)c1ccccc1C2=O [Example 15, 1-[3-(L-tyrosinylaminopropyl)amino]-anthracene-9,10-dione]",6.7,3,–,–,–
22.8,14.2,8.6,"N[C@H](Cc1ccccc1)C(=O)NCCCCNc1cccc2c1C(=O)c1ccccc1C2=O [Example 20, 1-[(4-D-phenylalanylaminobutyl)amino]-anthracene-9,10-dione]",–,16.8,21.4,–,–
